In one test the test system is adjuvant arthritis. Kind of test: Treatment of adjuvant arthritis in rats. The class given is in vivo, female Lewis rats. The settings on record: oral, once a day for 12 days, dose-dependent.
Test [1] relates to CD4+ CD45Rbhigh T cell-reconstituted colitis. Kind of test: CD4+ CD45Rbhigh T cell-reconstituted SCID colitis model mice. The class given is in vivo, C.B-17 SCID mice. The protocol: Treatment of Crohn's disease in CD4^+ CD45Rb^high T cell-reconstituted SCID colitis model mice: Spleen cells were prepared from normal female BALB/c mice. For cell purification, the following anti-mouse antibodies were used to label non-CD4^+ T cells: B220 (RA3-6B2), CD11b (M1/70), and CD8α (53-6.72). All antibodies were obtained from BioSource (Camarillo, Calif.). M450 anti-rat IgG-coated magnetic beads (Dynal, Oslo, Norway) were used to bind the antibodies and negative selection was accomplished using an MPC-1 magnetic concentrator. The enriched CD4^+ cells were then labeled for cell sorting with FITC-conjugated CD45RB (16A, Pharmingen, San Diego, Calif.) and PE-conjugated CD4 (CT-CD4, Caltag, Burlingame, Calif.). CD4^+ CD45Rb^high cells were operationally defined as the upper 40% of CD45Rb-staining CD4^+ cells and sorted under sterile conditions by flow cytometry. Harvested cells were resuspended at 4×10^6/mL in PBS and injected 100 μL intraperitoneally into female C.B-17 SCID mice. Pyrimidine compounds of this invention (e.g., Compound 12) and/or vehicle was orally administered once a day, 5 days per week, starting the day following the transfer. The transplanted SCID mice were weighed weekly and their clinical condition was monitored. Colon tissue samples were fixed in 10% buffered formalin and embedded in paraffin. Sections (4 μm) collected from ascending, transverse, and descending colon were cut and stained with hematoxylin and eosin. The severity of colitis was determined based on histological examination of the distal colon sections, whereby the extent of colonic inflammation was graded on a scale of 0-3 in each of four criteria: crypt elongation, cell infiltration, depletion of goblet cells, and the number of crypt abscesses. LP lymphocytes were isolated from freshly obtained colonic specimens. After removal of […] patches, the colon was washed in Ca/Mg-free HBSS, cut into 0.5 cm pieces and incubated twice in HBSS containing EDTA (0.75 mM), DTT (1 mM), and antibiotics (amphotericin 2.5 μg/mL, gentamicin 50 μg/mL from Sigma) at 37° C. for 15 min. Next, the tissue was-digested further in RPMI containing 0.5 mg/mL collagenase D, 0.01 mg/mL DNase I (Boehringer Manheim), and antibiotics at 37° C. LP cells were then layered on a 40-100% Percoll gradient (Pharmacia, Uppsala, Sweden), and lymphocyte-enriched populations were isolated from the cells at the 40-100% interface. To measure cytokine production, 48-well plates were coated with 10 μg/mL murine anti-CD3ε antibody (145-2C11) in carbonate buffer (PH 9.6) overnight at 4° C. […] Murine IFNγ was measured using an ELISA kit from Endogen (Cambridge, Mass.), according to the manufacturer's instructions.

Test [2] deals with DNBS-induced distal colitis. Kind of test: Dinitrobenzene sulfonic acid-induced inflammatory bowel syndrome model rats. The test is classed as in vivo, Wistar derived rats. Conditions: oral, 24 and 2 h before DNBS, then daily for 5 days; relative to vehicle+DNBS net increase. On the procedure: Treatment of Crohn's disease in dinitrobenzene suifonic acid-induced inflammatory bowel syndrome model rats: Wistar derived male or female rats weighing 200±20 g and fasted for 24 hours were used. Distal colitis was induced by intra-colonic instillation of 2,4-dinitrobenzene sulfonic acid (DNBS, 25 mg in 0.5 mL ethanol 30%) after which air (2 mL) was gently injected through the cannula to ensure that the solution remained in the colon. A test compound and/or vehicle was administered orally 24 and 2 hours before DNBS instillation and then daily for 5 days. One control group was similarly treated with vehicle alone while the other is treated with vehicle plus DNBS. The animals were sacrificed 24 hours after the final dose of test compound administration and each colon was removed and weighed. Colon-to-body weight ratio was then calculated for each animal according to the formula: Colon (g)/BW×100. The “Net” increase in ratio of Vehicle-control+DNBS group relative to Vehicle-control group was used as a base for comparison with test substance treated groups and expressed as “% Deduction.” Pyriridine compounds of this invention (e.g., Compound 12) reproducibly had about 30% deduction. A 30% or more reduction in colon-to-body weight ratio, relative to the vehicle treated eontrol group, was considered significant.

For the compound `Cc1cccc(C=NNc2cc(N3CCOCC3)nc(OCCc3ccccn3)n2)c1` [Compound 12, N-(3-methyl-benzylidene)-N′-[6-morpholin-4-yl-2-(2-pyridin-2-yl-ethoxy)-pyrimidin-4-yl]-hydrazine], the development of polyarthritis result with adjuvant arthritis is listed as “delayed the development of polyarthritis”. In the test on adjuvant arthritis (repeated four times), the arthritic score result was “reduced the arthritic score”. In addition, the “IFNγ production by LP cells” value in test [1] (ex vivo LP cells from treated mice, anti-CD3 and anti-CD28 antibody, 48 h, ELISA) is recorded as “greatly diminished the production”. Further, the “colonic inflammation (histological analysis), suppressive effect” value in test [1] (oral, dose of 10 mg/kg) is given as “substantial reduction”. Moreover, in test [1] (oral, once a day, 5 days per week, versus vehicle control), the “colonic inflammation (histological analysis)” value is “reduced colonic inflammation”. Moreover, the colon-to-body weight ratio entry in test [1] (oral, consistent with histological score) is “attenuation”. The “% Deduction (colon-to-body weight ratio)” value in test [2] is “about 30%”.

These data come from patent publication US7465725B2, “Pyrimidine compounds” (Synta Pharmaceuticals Corp., priority 2001, dated 2008).
